Data taken from patent US20240226020A1 (AMGEN INC., priority 2021, published 2024).
Entries after “also recorded” stand apart in the source; their conditions may differ.

Tests used:
[1] = Compactibility and tabletability (radial tensile strength, compression pressure); format: physicochemical
Procedure: (§1) After compression, tablets were measured for their ejected weight, thickness and diameter. Tablets were then stored for minimally 48 hours to allow for complete viscoelastic relaxation. The recovered dimensions were measured prior to diametrical compression testing performed using the HB compaction simulator operating at a constant loading rate of 5 mm/min. The force required to cause diametrical failure was recorded and used to compute radial tensile strength values.
Compactibility and Tabletability: The ability of a powder bed to cohere into or to form a compact gives an indication of powder compactibility. This behavior is described as a plot of tablet radial tensile strength (RTS) as a function of tablet solid fraction (SF) (FIG. 12A). For understanding fundamental material behavior, it is advantageous to compare materials at similar levels of solid fraction. […] The compactibility of all three placebo blends can be classified as “low” because each blend has been previously dry granulated. Tabletability is another relevant parameter which is useful in identifying the pressure needed to achieve a specific tablet hardness or tensile strength. This behavior is described as a plot of tablet radial tensile strength (RTS) as a function of compaction pressure (FIG. 12B).

[2] = Water dispersion study: pharmacokinetics of 8×120 mg tablets versus tablets dispersed in water; format: in vivo, healthy subjects; conditions: plasma; for AUC(0-inf): human, oral, 960 mg, Geometric mean sotorasib AUCinf
Procedure: Doses were administered orally on Days 1 and 4 during the mornings after an overnight fast of at least 10 hours. A total of 13 subjects entered the study (7 subjects receiving treatment in the sequences of Treatment A followed by Treatment B; and 6 subjects receiving treatment in the sequences of Treatment B followed by Treatment A). Data for all subjects was included in the pharmacokinetic (PK) and safety analyses. […] PK parameters including AUClast, AUCinf, and Cmax were estimated and compared between Treatment A and Treatment B. The natural log-transformed PK parameters were analyzed using a mixed model. The model included treat, period, and sequence as fixed effect and subject nested within a sequence as a random effect. […] Additionally, the pooled estimate (across all treatments) of the within-subject coefficient of variation was calculated, and residual plots were produced to assess the adequacy of the model(s) fitted.

[3] = Compressibility (tablet solid fraction as a function of compaction pressure); format: physicochemical
Procedure: as §1
Compressibility: The ability of a powder bed to be reduced in volume due to the application of an applied stress gives an indication of powder compressibility. This behavior is described in terms of tablet solid fraction as a function of compaction pressure (see Table 38). Interpretation of the data considers the change in solid fraction between two pressure conditions. The increased difference in SF at a high pressure and a low pressure is indicative of increased compressibility of the blend. […] Therefore, a 3:1 plastic to brittle diluent ratio, e.g., a 3:1 Avicel PH102 to lactose ratio, is preferred.

[4] = test system: extracellular signal-regulated kinase (ERK); conditions: preclinical studies; cited from earlier work
[5] = Water dispersion study: safety and tolerability; format: in vivo; conditions: healthy subjects
Procedure: Doses were administered orally on Days 1 and 4 during the mornings after an overnight fast of at least 10 hours. A total of 13 subjects entered the study (7 subjects receiving treatment in the sequences of Treatment A followed by Treatment B; and 6 subjects receiving treatment in the sequences of Treatment B followed by Treatment A). Data for all subjects was included in the pharmacokinetic (PK) and safety analyses. […] All events resolved by the end of the study.

C=CC(=O)N1CCN(c2nc(=O)n(-c3c(C)ccnc3C(C)C)c3nc(-c4c(O)cccc4F)c(F)cc23)[C@@H](C)C1 (atropisomer, axis not shown; (M)) [Sotorasib, 6-fluoro-7-(2-fluoro-6-hydroxyphenyl)-(1M)-1-[4-methyl-2-(propan-2-yl)pyridin-3-yl]-4-[(2S)-2-methyl-4-(prop-2-enoyl)piperazin-1-yl]pyrido[2,3-d]pyrimidin-2(1H)-one]
Assessment of compressibility and compactibility [1]: high levels of compressibility combined with very low levels of compactibility
solid fraction at a theoretical strength value of 2 MPa [1]: 0.85
RTS (MPa) @ 0.85 SF ([1]; 0.85 SF): 1.59 MPa
RTS (MPa) @ 150 MPa ([1]; 150 MPa): 1.62 MPa
CP (MPa) @ RTS = 2 MPa ([1]; RTS = 2 MPa): 149.00 MPa
SF @ RTS = 2 MPa ([1]; RTS = 2 MPa): 0.85
radial tensile strength ([1]; compressed to a peak pressure of 150 MPa): 1.62 MPa
radial tensile strength ([1]; compressed to an out of die solid fraction of 0.85): 1.59 MPa
median sotorasib tmax ([2]; 8×120 mg tablets (Formulation #8) dispersed in water (Treatment B), single oral dose, fasted): 1 h
AUC(0-inf) ([2]; administered as tablets (Treatment A)): 25300 ng·h/mL
AUC(0-inf) ([2]; administered as water dispersion (Treatment B)): 26400 ng·h/mL
applied pressure required to produce a tablet with an out of die solid fraction of 0.85 [3]: approximately 145 MPa
phosphorylation of extracellular signal-regulated kinase (ERK) [4]: inhibited nearly all detectable phosphorylation
Safety and tolerability ([5]; single doses of 960 mg as tablets dispersed in water and as tablets): safe and well tolerated; also recorded: safe and well-tolerated
Clinical laboratory evaluations, vital signs, 12-lead ECGs ([5]; single doses of 960 mg): no clinically significant findings
Serious adverse events ([5]; single doses of 960 mg): no serious adverse events
Treatment-emergent adverse events ([5]; single doses of 960 mg, all mild, related to sotorasib, resolved): Three treatment-emergent adverse events of constipation, nausea and vomiting
